Assay results reported in PubChem BioAssay AID2202554 (NIEHS Division of Translational Toxicology (DTT)).
Results filed as inconclusive are left out. Activity calls are given as the source filed them. No rule for the calls is given here.

Tested on: S. typhimurium/E. coli reverse mutation, colony counts
Experiment: Bacterial reverse mutation test (aka Ames test) summary data
Method in brief: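 S. typhimurium his⁻ strains (TA97–TA1538) and E. coli WP2 uvrA pKM101 trp⁻, dosed over a range with or without rat, hamster or mouse liver S9. Preincubated 20 min at 37° C (or plate incorporation), plated in agar, incubated usually two days. Revertant colonies counted against negative controls.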

Compound	outcome
Cc1ccc2c(c1[N+](=O)[O-])C(=O)c1ccccc1C2=O	active; positive
O.O.O.O.O.O.O=S(=O)([O-])[O-].[Ni+2]	inactive; negative
CNC(=O)CSP(=S)(OC)OC	active; positive
CC(C)(C)c1ccc(O)c(O)c1	inactive; negative
CC(C)(C#N)C(C)(C)C#N	inactive; negative
CC(C)(OOC(C)(C)c1ccccc1)c1ccccc1	inactive; negative
OC(c1ccc(Cl)cc1)(c1ccc(Cl)cc1)C(Cl)(Cl)Cl	inactive; negative
OCc1c[nH]c2ccccc12	active; positive
Cc1ccc(C(C)(C)C)cc1	inactive; negative
N#CCCl	inactive; negative
O=C(O)C(Cl)Cl	active; positive
N#CSCSc1nc2ccccc2s1	active; positive
OCCO	inactive; negative
C=CCCl	active; positive
COP(=S)(OC)SCn1nnc2ccccc2c1=O	active; positive
BrC(Br)C(Br)Br	inactive; negative
CC[C@H]1CN2CCc3cc(OC)c(OC)cc3[C@@H]2C[C@@H]1C[C@H]1NCCc2cc(OC)c(OC)cc21	inactive; negative
ClC1=C(Cl)C2(Cl)C3C(Cl)C(Cl)CC3C1(Cl)C2(Cl)Cl (centres undefined)	inactive; negative
C=Cc1ccccc1Cl	inactive; negative
Clc1cccc(C(Cl)(Cl)Cl)n1	active; positive
Nc1cccc(S(=O)(=O)O)c1	inactive; negative
Cc1cc([N+](=O)[O-])ccc1N	active; positive
C(CCOCC1CO1)COCC1CO1 (centres undefined)	active; positive

Compound	outcome
CCCCCCCCCCCC(C)=O	inactive; negative
CCCCC(C=O)CC (centres undefined)	inactive; negative
CCCCC1C(=O)N(c2ccccc2)N(c2ccccc2)C1=O	inactive; negative
NS(=O)(=O)c1cc2c(cc1Cl)NCNS2(=O)=O	inactive; negative
CCCC[N+](=O)[O-]	inactive; negative
C[N+](C)(C)CCO	inactive; negative
c1ccc(CSCc2ccccc2)cc1	inactive; negative
Nc1ccc(-c2ccc(N)c(Cl)c2)cc1Cl	active; positive
CCCCCCCCCCCCCOC(=O)c1ccccc1C(=O)OCCCCCCCCCCCCC	inactive; negative
COc1ccc(N=[N+]([O-])c2ccc(OC)cc2)cc1	active; positive
COc1ccc(C(=O)Nc2ccccc2)cc1[N+](=O)[O-]	active; positive
N=C1C=CC(=C(c2ccc(N)cc2)c2ccc(N)cc2)C=C1	active; positive
Nc1ccc(O)c([N+](=O)[O-])c1	active; positive
N#CCO	inactive; negative
C[CH2][Pb]([Cl])([CH2]C)[CH2]C	inactive; negative
NS(=O)(=O)c1cc2c(cc1Cl)NC=NS2(=O)=O	inactive; negative
Nc1ccc(NCCO)c([N+](=O)[O-])c1	active; positive
CC(C)=CCl	active; positive
c1ccc2c(c1)oc1ccccc12	inactive; negative
CC1=CC(=C(c2ccc(N)cc2)c2ccc(N)cc2)C=CC1=N	active; positive
C=CCCC#N	inactive; negative
Nc1c(Oc2ccccc2)cc(O)c2c1C(=O)c1ccccc1C2=O	active; positive
CC(=O)OC(C)=O	inactive; negative

Compound	outcome
OC[C@@]1(O)CO[C@](O)(CO)CO1	active; positive
c1ccc(OP(Oc2ccccc2)Oc2ccccc2)cc1	inactive; negative
Cc1cc(=O)oc2cc(O)ccc12	inactive; negative
C	inactive; negative
CCCCC(CC)COC(=O)c1ccccc1C(=O)OCC(CC)CCCC (centres undefined)	inactive; negative
O=C1OC(=O)c2ccccc21	inactive; negative
Cc1ccc2c(C)cccc2c1	inactive; negative
CCC1CO1 (centres undefined)	active; positive
c1ccc(Nc2ccccc2)cc1	inactive; negative
C=CC(=O)OCC	active; weakly positive
CC=C(Cl)Cl	inactive; negative
Cc1cc(C)cc([N+](=O)[O-])c1	active; positive
CC1OC1C (centres undefined)	active; positive
ClC(Cl)(Cl)CC1CO1 (centres undefined)	active; positive
N#CCCO	inactive; negative
O=C(OCC(COC(=O)c1ccccc1)(COC(=O)c1ccccc1)COC(=O)c1ccccc1)c1ccccc1	inactive; negative
Clc1nc(Cl)nc(Nc2ccccc2Cl)n1	inactive; negative
CC1(C)CC(N=C=O)CC(C)(CN=C=O)C1 (centres undefined)	inactive; negative
Oc1ccc(O)cc1	inactive; negative
COc1ccc(C(=O)c2ccccc2)c(O)c1	active; weakly positive
CCCCC	inactive; negative
CC(C)(C)c1ccc(OCC2CO2)cc1 (centres undefined)	active; positive
C=C(Cl)C(=O)OC	active; positive

Compound	outcome
CN(C)c1nc(=O)n(C2CCCCC2)c(=O)n1C	inactive; negative
CCCCN(CC)CC	inactive; negative
O=c1ccc(O)n[nH]1	active; weakly positive
ClC(Cl)C(Cl)Cl	inactive; negative
O=C(OOC(=O)c1ccccc1)c1ccccc1	inactive; negative
CC(O)COC(C)(C)C (centres undefined)	active; positive
CSCCC=O	inactive; negative
O=[N+]([O-])c1ccccc1O	inactive; negative
CCS(=O)CCSP(=O)(OC)OC (centres undefined)	active; positive
CCCCCCC(=O)OCC	inactive; negative
CC/C=C\C/C=C\C/C=C\CCCCCCCC(=O)O	active; weakly positive
Nc1ccc(Oc2ccc(N)cc2)cc1	active; positive
CNCCO	inactive; negative
Clc1ccc(C(c2ccc(Cl)cc2)C(Cl)(Cl)Cl)cc1	inactive; negative
COC(=O)CCCC(=O)OC	inactive; negative
O=C(O)c1cc(Cl)ccc1Cl	inactive; negative
O=[N+]([O-])c1ccc(CCO)cc1	active; positive
O=C1c2c(O)ccc(Nc3ccc(CCO)cc3)c2C(=O)c2c([N+](=O)[O-])ccc(O)c21	active; positive
O=S(=O)(c1ccc(Cl)cc1)c1ccc(Cl)cc1	inactive; negative
CON	inactive; negative
c1cnc2c(c1)ccc1cccnc12	inactive; negative
Cc1cccnc1	inactive; negative
CC(N)=S	inactive; negative

Compound	outcome
O=Cc1ccccc1Cl	inactive; negative
O=C(O)c1ccc(Cl)c(Cl)c1	inactive; negative
CC(C)(COCC1CO1)COCC1CO1 (centres undefined)	active; positive
COC(=O)[C@H]1[C@H]2C[C@@H]3c4[nH]c5cc(OC)ccc5c4CCN3C[C@H]2C[C@@H](OC(=O)/C=C/c2cc(OC)c(OC)c(OC)c2)[C@@H]1OC	inactive; negative
SCCc1cnccn1	inactive; negative
Cc1ccccc1Br	inactive; negative
C=CCOC(=O)C=C	inactive; negative
CC(O)CNCC(C)O (centres undefined)	inactive; negative
CS(C)=O	inactive; negative
CCOC(=O)C1OC1c1ccccc1 (centres undefined)	inactive; negative
CC(C)(C)C(=O)C1C(=O)c2ccccc2C1=O	inactive; negative
CN(C)CCN(Cc1cccs1)c1ccccn1	inactive; negative
CC(=O)CC(=O)Nc1ccccc1	inactive; negative
CCCCCCCCCCCCCCCCCCCC	inactive; negative
CC(=O)Nc1cccc(O)c1	inactive; negative
C[C@](N)(Cc1ccc(O)c(O)c1)C(=O)O	inactive; negative
C1CNCCN1	inactive; negative
ClC(Cl)(Cl)C(Cl)(Cl)Cl	inactive; negative
O=[N+]([O-])c1ccccc1CCO	active; positive
ClC=CC[N+]12CN3CN(CN(C3)C1)C2	active; weakly positive
CCCCCCCCCCCCCCC1CO1 (centres undefined)	inactive; negative
CN(C)CCN(C)C	inactive; negative
CCc1cccc(N)c1	inactive; negative

Compound	outcome
Nc1ccc(N=Nc2ccccc2)cc1	active; positive
NC(=S)Nc1ccccc1	inactive; negative
S=C1NC=NC2N=CNC12 (centres undefined)	active; positive
CCCCCCCCS(=O)C(C)Cc1ccc2c(c1)OCO2 (centres undefined)	inactive; negative
CCC(C)(C)OC	inactive; negative
Nc1c(Cl)c(Cl)nc(C(=O)O)c1Cl	inactive; negative
O=c1[nH]cc(F)c(=O)[nH]1	inactive; negative
NCCc1ccc(O)c(O)c1	active; weakly positive
NNC(N)=S	inactive; negative
Cc1cc(C)c(N=Nc2c(O)c(S(=O)(=O)O)cc3cc(S(=O)(=O)O)ccc23)cc1C	inactive; negative
O=[N+]([O-])C(Br)(Br)Br	active; weakly positive
C1=CC2C3C=CC(C3)C2C1 (centres undefined)	inactive; negative
O=C1OC2(c3ccc(O)cc3Oc3cc(O)ccc32)c2ccccc21	inactive; negative
c1ccc2[nH]c(-c3cscn3)nc2c1	active; positive
C=CCc1ccc(O)c(OC)c1	inactive; negative
CC(C)c1ccccc1	inactive; negative
CC[Si](Cl)(Cl)CC	inactive; negative
NC(=O)NN=Cc1ccc([N+](=O)[O-])o1	active; positive
CCCN(CCC)c1c([N+](=O)[O-])cc(C(F)(F)F)cc1[N+](=O)[O-]	active; positive
